US5070210A, “Novel ketenimines as intermediates for insecticides” (ICI Americas Inc., priority 1990, dated 1991)

How the values were obtained:
Format in all cases: in vivo
[1] = system: Housefly [Musca domestica]; assay: Housefly insecticidal test; settings: μg per 25 female flies; mortality after 48 hours
In short: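 Residual contact test: acetone dilution, 0.01% peanut oil spreader, solvent evaporated; 25 ♀ flies (1-2 d old) per cage; sugar-water plug; 48 h mortality read. LC50 in μg/25 female flies, from dose-mortality curves; top dose 100 μg/25 flies.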

[2] = system: Tobacco Budworm [Heliothis virescens (Fabricius)] eggs; assay: Tobacco budworm egg test; settings: 2-day old eggs, percent in solution
In short: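 Step 1: dip 2-day old egg patches in acetone test solutions (top concentration 0.1%). Step 2: hold in dishes with rearing medium at 78° F. Step 3: record mortality after control hatch and feeding.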

[3] = system: Cabbage Looper [Trichoplusia ni (Hubner)]; assay: Cabbage looper insecticidal test; settings: second-instar larvae, percent in solution; 3-5 days
In short: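 Squash cotyledons dipped in test solution (acetone-water 50-50, ≤0.1%), dried, offered to 5 second-instar larvae; mortality after 3-5 days gives LC50.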

[4] = system: Maize weevil [Sitophilus Zeamais (Motschulsky)]; assay: Maize weevil insecticidal test; settings: adult weevils, percent in solution; 48 hours
In short: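 LC50, in percent of compound in solution, was derived from dosage-mortality curves after 48 h at about 25 °C. Ten adult weevils per container fed on four corn seeds briefly immersed in acetone:water (50:50) solutions of up to 0.01% and dried.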

SMILES	LC50, HF [1] [µg]	LC50, TBW, E (TBW-E) [2] [%]	LC50, CL [3] [%]	LC50, MW [4] [%]
CC(C)C(=Nc1ccc(OCC(F)(F)F)cc1)OCc1ccc(F)c(Oc2ccccc2)c1 [Compound 422]	< 100	0.05	0.00075	> 0.01
CC(C)C(=Nc1ccc(OCC(F)(F)F)cc1)OCc1cccc(Oc2ccccc2)c1 [Compound 423]	> 100	> 0.1	0.002	> 0.01
CC(C)C(=Nc1ccc(OCC(F)(F)F)c(Cl)c1)OCc1ccc(F)c(Oc2ccccc2)c1 [Compound 424]	> 100	0.035	0.00038	> 0.01
CC(C)C(=Nc1ccc(OCC(F)(F)F)c(Cl)c1)OCc1cccc(Oc2ccccc2)c1 [Compound 425]	> 100	> 0.1	0.00075	> 0.01
CCOc1cccc(N=C(OCc2ccc(F)c(Oc3ccc(F)cc3)c2)C(C)C)c1 [Compound 426]	> 100	> 0.1	0.002	> 0.01
CC(C)C(=Nc1ccc(C(F)(F)F)cc1Cl)OCc1cccc(Oc2ccc(F)cc2)c1 [Compound 427]	> 100	> 0.1	< 0.1	> 0.01
CC(C)C(=Nc1ccc(C(F)(F)F)cc1Cl)OCc1ccc(F)c(Oc2ccccc2)c1 [Compound 428]	> 100	> 0.1	0.0017	> 0.01
CC(C)C(=Nc1ccc(OCC(F)(F)F)c(F)c1)OCc1cccc(Oc2ccc(Cl)cc2)c1 [Compound 429]	> 100	< 0.1	0.0017	> 0.01
C=C(C)C(=Nc1ccc(C(F)(F)F)cc1)OCc1cccc(Oc2ccccc2)c1 [Compound 430]	< 100	0.032	0.001	0.004
CC(C)C(=Nc1ccc(C(F)(F)F)c(Br)c1)OCc1ccc(F)c(Oc2ccccc2)c1 [Compound 434]	< 100	> 0.1	0.0017	0.009
COc1ccc(N=C(OCc2ccc(F)c(Oc3ccccc3)c2)C(C)C)cc1F [Compound 435]	< 100	0.04	0.002	> 0.01
CC(C)C(=Nc1cccc(OC(F)(F)F)c1)OCc1ccc(F)c(Oc2ccc(Cl)cc2)c1 [Compound 436]	< 100	< 0.1	0.00075	> 0.01
CC(C)C(=Nc1cccc(OC(F)(F)F)c1)OCc1ccc(F)c(Oc2ccccc2)c1 [Compound 437]	< 100	0.025	0.00075	> 0.01
CCc1ccc(N=C(OCc2cccc(Oc3ccc(F)cc3)c2)C(C)C)cc1Cl [Compound 438]	> 100	< 0.1	0.0009	> 0.01
CCOc1ccc(N=C(OCc2ccc(F)c(Oc3ccccc3)c2)C(C)C)cc1F [Compound 439]	> 100	> 0.1	0.00045	> 0.01
CCCc1ccc(N=C(OCc2ccc(F)c(Oc3ccc(F)cc3)c2)C(C)C)cc1 [Compound 440]	> 100	< 0.1	0.002	> 0.01
CC(C)C(=Nc1ccc(Cl)c(F)c1)OCc1ccc(F)c(Oc2ccc(F)cc2)c1 [Compound 441]	< 100	0.016	0.000025	0.006
C=C(C)C(=Nc1ccc(C(F)(F)F)cc1)OCc1cccc(Oc2ccc(F)cc2)c1 [Compound 442]	< 100	0.035	0.0007	> 0.01
Fc1ccc(COC(=Nc2ccc(C(F)(F)F)cc2)C2CC2)cc1Oc1ccccc1 [Compound 443]	< 100	0.017	0.00015	< 0.01
Fc1ccc(COC(=Nc2ccc(C(F)(F)F)cc2)C2CC2)cc1Oc1ccc(Cl)cc1 [Compound 444]	> 100	0.023	0.00015	> 0.01

SMILES	LC50, HF [1] [µg]	LC50, TBW, E (TBW-E) [2] [%]	LC50, CL [3] [%]	LC50, MW [4] [%]
CC(C)C(=Nc1ccc(C(F)(F)F)cc1[N+](=O)[O-])OCc1ccc(F)c(Oc2ccccc2)c1 [Compound 445]	< 100	> 0.1	0.00045	> 0.01
CCOc1ccc(N=C(OCc2cccc(Oc3ccc(F)cc3)c2)C(C)C)cc1Br [Compound 446]	> 100	< 0.1	0.0008	> 0.01
CC(C)C(=Nc1ccc(F)c(I)c1)OCc1cccc(Oc2ccc(F)cc2)c1 [Compound 449]	13	0.025	0.0001	0.0075
CC(C)C(=Nc1cccc(C(F)(F)F)c1)OC(C)c1cccc(Oc2ccccc2)c1 (stereo not shown) [Compound 459]	> 100	0.1	0.008	> 0.01
CC(C)C(=Nc1ccc(F)c(Cl)c1)OCc1cccc(Oc2c(F)c(F)c(F)c(F)c2F)c1 [Compound 460]	> 100	> 0.1	0.02	> 0.01
CC(C)C(=Nc1ccc(I)c(Cl)c1)OCc1cccc(Oc2ccc(Cl)cc2)n1 [Compound 471]	< 100	0.018	0.00018	> 0.01
CC(C)C(=Nc1cccc(C(F)(F)F)c1)OCc1cccc(Oc2ccc(Cl)cc2)n1 [Compound 477]	20	> 0.1	0.0003	0.0076
CC(C)C(=Nc1ccc(Br)cc1)OCc1coc(Cc2ccccc2)c1 [Compound 478]	15	> 0.1	0.0037	> 0.01
CC(C)C(=Nc1cccc(C(F)(F)F)c1)OCc1coc(Cc2ccccc2)c1 [Compound 482]	36	> 0.1	0.01	> 0.01
CC(C)C(=Nc1ccc2c(c1)OCO2)OCc1coc(Cc2ccccc2)c1 [Compound 483]	6	0.05	0.001	> 0.01
CC(C)C(=Nc1ccc(F)cc1F)OCc1coc(Cc2ccccc2)c1 [Compound 486]	15	> 0.1	> 0.1	> 0.01
COCc1c(F)c(F)c(COC(=Nc2cccc(C(F)(F)F)c2)C(C)C)c(F)c1F [Compound 503]	21	0.08	0.001	> 0.01
CC(C)C(=Nc1ccc(C(F)(F)F)cc1)OCc1cccc(Oc2ccccc2)n1 [Compound 504]	< 100	0.05	0.00025	0.01
COCc1c(F)c(F)c(COC(=Nc2ccc(F)c(Cl)c2)C(C)C)c(F)c1F [Compound 505]	14	0.09	0.0024	> 0.01
CC(C)C(=Nc1cccc(C(F)(F)F)c1)OCc1cc(Oc2ccccc2)ccn1 [Compound 506]	40	> 0.1	0.005	> 0.01
CC(C)C(=Nc1cccc(C(F)(F)F)c1)OCc1ccnc(Oc2ccccc2)c1 [Compound 507]	93	> 0.1	0.002	> 0.01
CC(C)C(=Nc1cccc(C(F)(F)F)c1)OCc1cc(Oc2ccc(Cl)cc2)ccn1 [Compound 509]	79	> 0.1	0.0075	> 0.01
CC(C)C(=Nc1ccc(F)c(Cl)c1)OCc1ccnc(Oc2ccccc2)c1 [Compound 510]	54	> 0.1	0.017	> 0.01
CC(C)C(=Nc1ccc(F)c(Cl)c1)OCc1ccnc(Oc2ccc(F)cc2)c1 [Compound 511]	89	> 0.1	0.0012	> 0.01
CC(C)C(=Nc1ccc(OC(F)(F)F)cc1)OCc1cccc(Oc2ccccc2)n1 [Compound 550]	< 100	> 0.1	0.00034	> 0.01
